In the assay the target is T1, ALI1 (AHL-Priming Protein 1; AtGlcAK2, formerly AtGALK2) (Arabidopsis thaliana, UniProt Q9LY82).
T1 construct: gene GLCAK2; full ORF amplified from Col-0 cDNA, pDEST17, N-terminal 6xHis kept, expressed in E. coli BL21, Ni-NTA purified; GST-ALI1 also made for the biosensor assay
T1 sequence (Q9LY82 1-366): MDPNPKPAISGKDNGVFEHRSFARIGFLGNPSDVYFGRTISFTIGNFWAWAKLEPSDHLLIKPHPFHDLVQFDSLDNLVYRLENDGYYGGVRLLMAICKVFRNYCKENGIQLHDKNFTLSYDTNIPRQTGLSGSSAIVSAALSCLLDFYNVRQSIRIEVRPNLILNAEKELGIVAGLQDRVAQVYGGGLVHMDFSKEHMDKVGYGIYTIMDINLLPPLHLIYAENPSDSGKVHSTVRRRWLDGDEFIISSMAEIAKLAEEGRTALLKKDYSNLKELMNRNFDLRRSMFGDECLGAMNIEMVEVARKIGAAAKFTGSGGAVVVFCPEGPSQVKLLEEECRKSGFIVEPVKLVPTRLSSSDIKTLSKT
Description: sequestration of free ligand read by biosensor E. coli LuxCDABE luminescence. The assay is classed as binding. The settings on record: 6 nmol protein, 0-18 nmol ligand, overnight; indirect assay, MST and nanoDSF by the same authors did not confirm.

With `CCCCCCCCCCCC(=O)CC(=O)N[C@H]1CCOC1=O` [oxo-C14-HSL], the “sequestration of free ligand read by biosensor E. coli LuxCDABE luminescence” value is recorded as “equivalently able to sequestrate oxo-C14-HSL molecule from the solution”.
